Key:
Format in all cases: in vivo
[1] = tested on: cotton aphids (Aphis gossypii); assay: Test Method 1: foliar spray on cucumber seedling infested with cotton aphids (Formulation example 1); conditions: 120 h, spray 10 mL/seedling, examined after 5 days, 25°C, read-out: controlling value
[2] = tested on: diamondback moth (Plutella xylostella); assay: Test Method 4: sprayed cabbage leaves fed to second instar diamondback moth; conditions: 120 h, second instar larvae, after 5 days, 25°C, read-out: mortality of insects
Experimental: (§1) Next, an efficacy of the present compound on controlling harmful arthropods is shown by Test examples. The following tests in the test examples below were conducted at 25°C.
Test compounds are made to a formulation according to a similar method to that described in the Formulation example 1, and thereto is added water containing 0.03 v/v% of Shindain (registered trademark) to prepare a diluted solution containing a prescribed concentration of the test compound.
(§2) Cabbage (Brassicae oleracea) seedling (on the developmental stage of the second to third true leaf) is planted in a cup, and the diluted solutions are sprayed into the seedling at a ratio of 20 mL/seedling. Thereafter, the stem and leaf thereof are cut out and then is installed into a cup that is covered with filter paper on the bed of the cup. Five (5) diamondback moth (Plutella xylostella) at the second instar larval stage are released into the cup. After 5 days, the number of the surviving insects is counted, and the mortality of insects is calculated by the following equation. [formula]

[3] = tested on: Western corn rootworms (Diabrotica virgifera virgifera); assay: Test Method 5: corn seedling immersion, Western corn rootworm; conditions: 120 h, read-out: mortality of insects
Experimental: as §1
Each 1 mg of the test compounds is dissolved into 50 µL of a mixed solution of polyoxyethylene sorbitan monolaurate and acetone (polyoxyethylene sorbitan monolaurate: acetone = 5 : 95 (v/v ratio)). Thereto is added water containing 0.03% by volume of Shindain (registered trademark) to prepare a diluted solution containing a prescribed concentration of the test compound.
A young entire seedling of Corns (Zea mays) is immersed into the diluted solution for 30 seconds. Thereafter, each two grains of the seedlings are installed in a plastic petri dish ([…]), and 10 Western corn rootworms (Diabrotica virgifera virgifera) at the second instar larval stage are released into the dish. After 5 days, the number of the dead insects is counted, and the mortality of insects is calculated by the following equation. Mortality(%) = (Numberofdeadinsects/10) × 100 [formula]

[4] = tested on: diamondback moth (Plutella xylostella); assay: Test Method 10: sprayed cabbage seedling, third instar diamondback moth (Formulation example 5); conditions: 144 h, third instar larvae, after 6 days, 25°C, read-out: controlling value
Experimental: (§3) The following tests in the test examples below were conducted at 25°C.
(§4) Cabbage (Brassicae oleracea) seedling (on the developmental stage of the third to fourth true leaf) is planted in a cup, and the diluted solutions are sprayed into the seedling at a ratio of 20 mL/seedling. Thereafter, ten (10) diamondback moth (Plutella xylostella) at the third instar larval stage are released onto the seedling. After 6 days, the number of the surviving insects is counted, and the mortality of insects is calculated by the following equation. [formula]

[5] = tested on: cotton aphids (Aphis gossypii); assay: Test Method 11: foliar spray on cucumber seedling infested with cotton aphids (Formulation example 5); conditions: 120 h, spray 10 mL/seedling, examined after 5 days, 25°C, read-out: controlling value
[6] = tested on: common house mosquitos (Culex pipiens pallens); assay: Test Method 12: mosquito larvae released into diluted solution; conditions: 24 h, last instar larvae, after 1 day, 25°C, read-out: controlling value
Experimental: as §3
Into the diluted solution, 30 common house mosquitos (Culex pipiens pallens) at the last instar larval stage are released, and after 1 day, the state of the house mosquito larvae is examined, and the mortality of insects is calculated by the following equation. [formula]

[7] = tested on: cotton worm (Spodoptera litura); assay: Test Method 3: sprayed cabbage leaves fed to second instar cotton worm; conditions: 120 h, second instar larvae, after 5 days, 25°C, read-out: mortality of insects
Experimental: as §3
as §2, with “cotton worm (Spodoptera litura)” for “diamondback moth (Plutella xylostella)”

[8] = tested on: housefly (Musca domestica); assay: Test Method 8: coated container contact test, housefly; conditions: 24 h, 40 mg/m^2, female adults, after one (1) day, 25°C, read-out: mortality of insects
Experimental: as §1
(§5) Acetone solution in which test compounds are adjusted to 800 ppm are prepared, and the solution is poured into a container having an internal volume of 20 mL, and the solution is coated uniformly on an inner face of the container such that the test compound is made to be 40 mg/m^2, and the container is then dried.
Five (5) housefly (Musca domestica) female adults are placed in the container, and the cup is covered with the lid. After the prescribed timing is passed, the state of the housefly is examined, and the mortality of insects is calculated by the following equation. [formula]

[9] = tested on: cotton worm (Spodoptera litura); assay: Test Method 9: sprayed cabbage seedling, third instar cotton worm (Formulation example 5); conditions: 144 h, third instar larvae, after 6 days, 25°C, read-out: controlling value
Experimental: as §3
as §4, with “cotton worm (Spodoptera litura)” for “diamondback moth (Plutella xylostella)”

[10] = tested on: German cockroach (Blattella germanica); assay: Test Method 6: coated container contact test, German cockroach; conditions: 72 h, read-out: mortality of insects
Experimental: as §1
as §5, with “50” for “20”
Five (5) German cockroach (Blattella germanica) male adults are placed in the container, and the cup is covered with the lid. After the prescribed timing is passed, the state of the German cockroach is examined, and the mortality of insects is calculated by the following equation. [formula]

Structure (SMILES) | mortality at 500 ppm [1] | mortality at 500 ppm [2] | mortality at 200 ppm [3] | mortality at 50 ppm [4] | mortality at 200 ppm [4] | mortality at 50 ppm [5] | mortality at 200 ppm [5] | mortality at 3.5 ppm [6] | mortality at 500 ppm [7] | mortality at 40 mg/m2 [8] | mortality at 50 ppm [9] | mortality at 200 ppm [9] | mortality at 40 mg/m2 [10]
CCS(=O)(=O)c1c(C(=O)N(C)c2nc3ccc(C(F)(F)F)cc3s2)nc2ccc(I)cn12 [compound 26] | ≥ 90% | ≥ 80% | ≥ 80% | ≥ 80% | ≥ 80% | ≥ 90% | ≥ 90% | ≥ 90% |  |  |  |  | 
CCS(=O)(=O)c1c(C(=O)N(C)c2nc3ccc(F)c(F)c3s2)nc2ccc(I)cn12 [compound 33] | ≥ 90% | ≥ 80% | ≥ 80% | ≥ 80% | ≥ 80% | ≥ 90% | ≥ 90% | ≥ 90% | ≥ 80% | ≥ 80% | ≥ 80% | ≥ 80% | 
CCS(=O)(=O)c1c(C(=O)N(C)c2nc3cc(F)c(F)cc3s2)nc2ccc(I)cn12 [compound 34] | ≥ 90% | ≥ 80% | ≥ 80% | ≥ 80% | ≥ 80% | ≥ 90% | ≥ 90% | ≥ 90% | ≥ 80% | ≥ 80% | ≥ 80% | ≥ 80% | 
CCS(=O)(=O)c1c(C(=O)N(C)c2nc3cc(F)c(F)c(F)c3s2)nc2ccc(Br)cn12 [compound 44] | ≥ 90% | ≥ 80% |  | ≥ 80% | ≥ 80% |  | ≥ 90% | ≥ 90% | ≥ 80% | ≥ 80% | ≥ 80% | ≥ 80% | ≥ 80%
CCS(=O)(=O)c1c(C(=O)N(C)c2nc3c(F)c(F)c(F)c(F)c3s2)nc2ccc(I)cn12 [compound 77] |  | ≥ 80% | ≥ 80% |  |  |  |  |  | ≥ 80% | ≥ 80% | ≥ 80% | ≥ 80% | 
CCS(=O)(=O)c1c(C(=O)N(C)c2nc3cc(Cl)c(F)cc3s2)nc2ccc(I)cn12 [compound 101] |  | ≥ 80% | ≥ 80% | ≥ 80% | ≥ 80% |  |  |  |  |  | ≥ 80% | ≥ 80% | 
CCS(=O)(=O)c1ccc(NC)nc1C(=O)N(C)c1nc2cc(F)c(F)c(F)c2s1 [compound 138] | ≥ 90% | ≥ 80% |  | ≥ 80% | ≥ 80% | ≥ 90% | ≥ 90% | ≥ 90% | ≥ 80% | ≥ 80% | ≥ 80% | ≥ 80% | 
CCS(=O)(=O)c1ccc(NC2CC2)nc1C(=O)N(C)c1nc2cc(F)c(F)c(F)c2s1 [compound 139] |  | ≥ 80% |  | ≥ 80% | ≥ 80% | ≥ 90% | ≥ 90% | ≥ 90% | ≥ 80% | ≥ 80% | ≥ 80% | ≥ 80% | 

Reference: patent EP4722205A1, “HETEROCYCLIC COMPOUND AND NOXIOUS ARTHROPOD-CONTROLLING COMPOSITION CONTAINING SAME” (Sumitomo Chemical Company, Limited, priority 2023, dated 2024)
